Data: patent publication US20240189255A1, “METHODS OF TREATMENT OF OSTEOARTHRITIS WITH TRANSDERMAL CANNABIDIOL GEL” (ZYNERBA PHARMACEUTICALS, INC., priority 2017, published 2024)

Assays:
[1] = test system: patients with confirmed osteoarthritis of the knee; assay: Double-blind, multi-center, placebo-controlled 12-week trial: worst knee pain score, WOMAC physical function, composite responders; assay type: in vivo, human; parameters: mean reduction from baseline in average worst knee pain scores / Worst Knee Pain Score: scale not given here
Experimental: (§1) Three hundred and twenty (320) patients aged 41 to 78 years of age with confirmed osteoarthritis of the knee were randomized in the double-blind, multi-center trial. Patients who completed the one-week washout and the seven-to-10-day baseline phase were randomized 1:1:1 to receive either 250 mg of CBD daily, 500 mg of CBD daily, or placebo, for 12 weeks. […] The 250 mg and 500 mg doses were administered as a 4.2% (wt/wt) CBD gel.
Across all participants, patients on 250 mg of CBD daily dosage achieved a 2.64 mean reduction from baseline in average worst knee pain scores at week 12; patients on 500 mg of CBD daily achieved a 2.83 mean reduction from baseline in average worst knee pain scores at week 12; and patients on placebo achieved a 2.37 mean reduction from baseline in average worst knee pain scores at week 12. […] A mixed-model repeated measures (MMRM) model was used to test for differences between active treatment groups and placebo based on all weekly average worst knee pain scores from Baseline to Week 12.
Over an initial 7 day period, patients were instructed to end use of other osteoarthritic treatment such as NSAID or COX-2 inhibitor, but were permitted to use acetaminophen for rescue use. At this time, baseline mean worst knee pain was identified for each patient. During the study, rescue use of acetaminophen was permitted for both active and placebo study groups, and there was no difference among the groups in prevalence of rescue use.
Fisher's Exact Test was used to test for differences in composite responders between each active treatment and placebo at LOCF. In the composite responder analysis, a positive response on the composite response analysis indicated a ≥30 percent reduction in worst average daily pain scores and a >20 percent improvement in WOMAC (Western Ontario & McMaster Universities Osteoarthritis Index) physical function score.
The study data was also analyzed with regard to the active dose per weight of the patient (i.e., dosage/weight in mg CBD/kg weight of patient). For this analysis, the patient population was divided into three groups: 0-25 percentile, 25-75 percentile, and 75-100 percentile, by dose/weight. Table 9 is a summary of composite responder analysis at last observation Dose/Weight Quartile 0-25%. Table 10 is a summary of composite responder analysis at last observation dose/weight quartile 25-75%. Table 11 is a summary of composite responder analysis at last observation dose/weight quartile 75-100%.

[2] = Pharmacokinetic data: plasma concentrations in the 12-week osteoarthritis trial; assay type: in vivo, human
Experimental: as §1

[3] = 250 mg CBD, efficacy patients, last observation, 93 assessed
[4] = 250 mg CBD, efficacy patients, last observation, 106 assessed
[5] = 500 mg CBD, efficacy patients, last observation, 91 assessed
[6] = 500 mg CBD, efficacy patients, last observation, 105 assessed
[7] = Dose/Weight Quartile 0-25%, 250 mg, last observation, 46 assessed, p=0.010

C=C(C)[C@@H]1CCC(C)=C[C@H]1c1c(O)cc(CCCCC)cc1O [CBD, 2-[3-methyl-6-(1-methylethenyl)-2-cyclohexen-1-yl]-5-pentyl-1,3-benzenediol]
20 Percent Responders in Physical Function WOMAC Score: No, number of patients [1, 3]: 33
20 Percent Responders in Physical Function WOMAC Score: No, percent of patients [1, 3]: (35.5) %
20 Percent Responders in Physical Function WOMAC Score: Yes, number of patients [1, 3]: 60
20 Percent Responders in Physical Function WOMAC Score: Yes, percent of patients [1, 3]: (64.5) %
Composite Responder: No, number of patients [1, 3]: 44
Composite Responder: No, percent of patients [1, 3]: (47.3) %
Composite Responder: Yes, number of patients ([1]; 250 mg CBD, efficacy patients, last observation, 93 assessed, p=0.016 vs placebo): 49
30 Percent Reduction in Diary Pain: No, number of patients [1, 4]: 53
30 Percent Reduction in Diary Pain: No, percent of patients [1, 4]: (50.0) %
30 Percent Reduction in Diary Pain: Yes, number of patients [1, 4]: 53
30 Percent Reduction in Diary Pain: Yes, percent of patients [1, 4]: (50.0) %
responder rate based on ≥30% reduction in worst pain severity ([1]; 250 mg of CBD daily, week 8, p=0.037): Statistically significant
20 Percent Responders in Physical Function WOMAC Score: No, number of patients [1, 5]: 37
20 Percent Responders in Physical Function WOMAC Score: No, percent of patients [1, 5]: (40.7) %
20 Percent Responders in Physical Function WOMAC Score: Yes, number of patients [1, 5]: 54
20 Percent Responders in Physical Function WOMAC Score: Yes, percent of patients [1, 5]: (59.3) %
Composite Responder: No, number of patients [1, 5]: 50
Composite Responder: No, percent of patients [1, 5]: (54.9) %
Composite Responder: Yes, number of patients ([1]; 500 mg CBD, efficacy patients, last observation, 91 assessed, p=0.169 vs placebo): 41
30 Percent Reduction in Diary Pain: No, number of patients [1, 6]: 54
30 Percent Reduction in Diary Pain: No, percent of patients [1, 6]: (51.4) %
30 Percent Reduction in Diary Pain: Yes, number of patients [1, 6]: 51
30 Percent Reduction in Diary Pain: Yes, percent of patients [1, 6]: (48.6) %
20 Percent Responders in Physical Function WOMAC Score: Yes, percent of patients ([1]; Dose/Weight Quartile 0-25%, 250 mg, last observation, 46 assessed): 69.6%
Composite Responders: Yes, number of patients [1, 7]: 27
Composite Responders: Yes, percent of patients [1, 7]: 58.7%
mean reduction from baseline in average worst knee pain scores ([1]; all participants, 250 mg CBD daily, week 12, placebo 2.37, not statistically significant): 2.64
mean reduction from baseline in average worst knee pain scores ([1]; all participants, 500 mg CBD daily, week 12, placebo 2.37, not statistically significant): 2.83
mean reduction from baseline in average worst knee pain scores ([1]; baseline pain score ≥7, both CBD dosage groups combined, week 4, placebo 1.6, p=0.029): 2.17
mean reduction from baseline in average worst knee pain scores ([1]; baseline pain score ≥7, both CBD dosage groups combined, week 8, placebo 2.22, p=0.054): 3.02
mean reduction from baseline in average worst knee pain scores ([1]; baseline pain score ≥7, both CBD dosage groups combined, week 12, placebo 2.52, p=0.086): 3.29
Composite Responders: Yes, percent of patients ([1]; dose/weight quartile 25-75%, 250 mg, last observation, 47 assessed, p=0.194): 46.8%
Composite Responders: Yes, percent of patients ([1]; dose/weight quartile 25-75%, 500 mg, last observation, 45 assessed, p=0.133): 48.9%
Composite Responders: Yes, percent of patients ([1]; dose/weight quartile 75-100%, 500 mg, last observation, 46 assessed, p=0.453): 41.3%
Composite Responders ([1]; male patients, 250 mg, LOCF, placebo 27%, p=0.003): 60%
Worst Knee Pain Score, % reduction ([1]; male patients, 250 mg, wk 4): 24%
Worst Knee Pain Score ([1]; male patients, 250 mg, wk 4, baseline 6.77, p=0.156): 5.05
Worst Knee Pain Score, % reduction ([1]; male patients, 250 mg, wk 8): 34%
Worst Knee Pain Score ([1]; male patients, 250 mg, wk 8, baseline 6.77, p=0.066): 4.47
Worst Knee Pain Score, % reduction ([1]; male patients, 250 mg, wk 12): 39%
Worst Knee Pain Score ([1]; male patients, 250 mg, wk 12, n=47, baseline 6.77, p=0.049): 4.16
Composite Responders ([1]; male patients, 500 mg, LOCF, placebo 27%, p=0.174): 41%
Worst Knee Pain Score, % reduction ([1]; male patients, 500 mg, wk 4): 22%
Worst Knee Pain Score ([1]; male patients, 500 mg, wk 4, baseline 6.85, p=0.323): 5.33
Worst Knee Pain Score, % reduction ([1]; male patients, 500 mg, wk 8): 30%
Worst Knee Pain Score ([1]; male patients, 500 mg, wk 8, baseline 6.85, p=0.474): 4.73
Worst Knee Pain Score, % reduction ([1]; male patients, 500 mg, wk 12): 33%
Worst Knee Pain Score ([1]; male patients, 500 mg, wk 12, n=38, baseline 6.85, p=0.193): 4.44
mean reduction from baseline in average worst knee pain scores ([1]; men, 250 mg of CBD daily, week 4, placebo 1.19, p=0.156): 1.65
mean reduction from baseline in average worst knee pain scores ([1]; men, 250 mg of CBD daily, week 8, placebo 1.56, p=0.066): 2.30
mean reduction from baseline in average worst knee pain scores ([1]; men, 250 mg of CBD daily, week 12, placebo 1.70, p=0.049): 2.68
pain reduction over placebo ([1]; patients having a baseline knee pain score less than 7, FIG. 10): not statistically significant
Composite Responders ([1]; patients with ≥7 mean baseline pain score, CBD groups combined, placebo 33%, p=0.083): 51%
Worst Knee Pain Score, % reduction ([1]; patients with ≥7 mean baseline pain score, CBD groups combined, wk4): 28%
Worst Knee Pain Score ([1]; patients with ≥7 mean baseline pain score, CBD groups combined, wk4, baseline 7.7, p=0.029): 5.45
Worst Knee Pain Score, % reduction ([1]; patients with ≥7 mean baseline pain score, CBD groups combined, wk8): 40%
Worst Knee Pain Score ([1]; patients with ≥7 mean baseline pain score, CBD groups combined, wk8, baseline 7.7, p=0.054): 4.61
Worst Knee Pain Score, % reduction ([1]; patients with ≥7 mean baseline pain score, CBD groups combined, wk12): 43%
Worst Knee Pain Score ([1]; patients with ≥7 mean baseline pain score, CBD groups combined, wk12, n=75, baseline 7.7, p=0.086): 4.34
Worst Knee Pain Score, % reduction ([1]; total patients, 250 mg, wk 4): 24%
Worst Knee Pain Score ([1]; total patients, 250 mg, wk 4, baseline 6.8, p=0.432): 5.09
Worst Knee Pain Score, % reduction ([1]; total patients, 250 mg, wk 8): 34%
Worst Knee Pain Score ([1]; total patients, 250 mg, wk 8, baseline 6.8, p=0.193): 4.43
Worst Knee Pain Score, % reduction ([1]; total patients, 250 mg, wk 12): 38%
Worst Knee Pain Score ([1]; total patients, 250 mg, wk 12, n=76, baseline 6.8, p=0.517): 4.23
Worst Knee Pain Score, % reduction ([1]; total patients, 500 mg, wk 4): 27%
Worst Knee Pain Score ([1]; total patients, 500 mg, wk 4, baseline 6.87, p=0.067): 4.96
Worst Knee Pain Score, % reduction ([1]; total patients, 500 mg, wk 8): 37%
Worst Knee Pain Score ([1]; total patients, 500 mg, wk 8, baseline 6.87, p=0.21): 4.27
Worst Knee Pain Score, % reduction ([1]; total patients, 500 mg, wk 12): 41%
Worst Knee Pain Score ([1]; total patients, 500 mg, wk 12, n=75, baseline 6.87, p=0.249): 3.99
dose media plasma concentrations, dose relationship ([2]; 500 mg and 250 mg daily CBD doses): dose proportional
plasma concentration of the 500 mg dose relative to the 250 mg dose ([2]; 500 mg vs 250 mg daily): approximately two times
